From ChEMBL document CHEMBL4419173, “Small-molecule inhibitors targeting g-protein-coupled rho guanine nucleotide exchange factors” (2014)
Calls of active or inactive are those of the source. The rule behind the calls is not given here.

Columns and labels:
[1] = system: MCF7; test: Inhibition of cell invasion of human MCF7 cells at 2.5 to 25 uM in presence of 2.5 to 25 uM Rhosin/G04 by Matrigel-coated transwell based assay; type: functional
[2] = system: MCF7; test: Inhibition of cell migration of human MCF7 cells at 10 to 50 uM; type: functional, cell-based
[3] = species on record: Mus musculus; test: Inhibition of RhoGEF in mouse NIH/3T3 cells assessed as inhibition of 10% calf serum-induced Cdc42-GTP formation by measuring relative Cdc42-GTP level at 50 uM in presence of 50 uM Rhosin/G04 incubated for 24 hrs by densitometry (reference value: 1); type: cell-based
[4] = target: RhoGEF 1/Transforming protein RhoA (Homo sapiens) (UniProt P61586+Q92888); test: Binding affinity to human LARG (765 to 1138 residues) DH-PH module expressed in mouse NIH/3T3 cells assessed as reduction in LARG binding to human full length RhoA (1 to 193 residues) by measuring relative LARG binding level at 2.5 uM in presence of 2.5 uM Rhosin/G04 pull-down assay (reference value: 1 No unit); type: cell-based
[5] = target: Rho guanine nucleotide exchange factor 12 (Homo sapiens, UniProt Q9NZN5); test: Inhibition of human LARG (765 to 1138 residues) RhoGEF binding to human full length RhoA (1 to 193 residues) in presence of Rhosin/G04
[6] = species on record: Mus musculus; test: Inhibition of RhoGEF-mediated Cdc42 signaling in mouse NIH/3T3 cells assessed as reduction in Bradykinin-stimulated Cdc42-mediated filopodia formation at 10 to 30 uM; type: cell-based
[7] = target: Intersectin-1 (Homo sapiens) (UniProt Q15811); test: Inhibition of GST-tagged human intersectin-1 (1227 to 1571 residues) RhoGEF-catalyzed guanine nucleotide-exchange reaction of human full length Cdc42 (1 to 191 residues) by measuring inhibition of the GDP dissociation from Cdc42 at 0.76 to 250000 nM by Alexa 647 fluorescence dye based GDP/GTP exchange assay
Chain of Intersectin-1 (Homo sapiens) (Q15811 whole entry, the tested form may be a part): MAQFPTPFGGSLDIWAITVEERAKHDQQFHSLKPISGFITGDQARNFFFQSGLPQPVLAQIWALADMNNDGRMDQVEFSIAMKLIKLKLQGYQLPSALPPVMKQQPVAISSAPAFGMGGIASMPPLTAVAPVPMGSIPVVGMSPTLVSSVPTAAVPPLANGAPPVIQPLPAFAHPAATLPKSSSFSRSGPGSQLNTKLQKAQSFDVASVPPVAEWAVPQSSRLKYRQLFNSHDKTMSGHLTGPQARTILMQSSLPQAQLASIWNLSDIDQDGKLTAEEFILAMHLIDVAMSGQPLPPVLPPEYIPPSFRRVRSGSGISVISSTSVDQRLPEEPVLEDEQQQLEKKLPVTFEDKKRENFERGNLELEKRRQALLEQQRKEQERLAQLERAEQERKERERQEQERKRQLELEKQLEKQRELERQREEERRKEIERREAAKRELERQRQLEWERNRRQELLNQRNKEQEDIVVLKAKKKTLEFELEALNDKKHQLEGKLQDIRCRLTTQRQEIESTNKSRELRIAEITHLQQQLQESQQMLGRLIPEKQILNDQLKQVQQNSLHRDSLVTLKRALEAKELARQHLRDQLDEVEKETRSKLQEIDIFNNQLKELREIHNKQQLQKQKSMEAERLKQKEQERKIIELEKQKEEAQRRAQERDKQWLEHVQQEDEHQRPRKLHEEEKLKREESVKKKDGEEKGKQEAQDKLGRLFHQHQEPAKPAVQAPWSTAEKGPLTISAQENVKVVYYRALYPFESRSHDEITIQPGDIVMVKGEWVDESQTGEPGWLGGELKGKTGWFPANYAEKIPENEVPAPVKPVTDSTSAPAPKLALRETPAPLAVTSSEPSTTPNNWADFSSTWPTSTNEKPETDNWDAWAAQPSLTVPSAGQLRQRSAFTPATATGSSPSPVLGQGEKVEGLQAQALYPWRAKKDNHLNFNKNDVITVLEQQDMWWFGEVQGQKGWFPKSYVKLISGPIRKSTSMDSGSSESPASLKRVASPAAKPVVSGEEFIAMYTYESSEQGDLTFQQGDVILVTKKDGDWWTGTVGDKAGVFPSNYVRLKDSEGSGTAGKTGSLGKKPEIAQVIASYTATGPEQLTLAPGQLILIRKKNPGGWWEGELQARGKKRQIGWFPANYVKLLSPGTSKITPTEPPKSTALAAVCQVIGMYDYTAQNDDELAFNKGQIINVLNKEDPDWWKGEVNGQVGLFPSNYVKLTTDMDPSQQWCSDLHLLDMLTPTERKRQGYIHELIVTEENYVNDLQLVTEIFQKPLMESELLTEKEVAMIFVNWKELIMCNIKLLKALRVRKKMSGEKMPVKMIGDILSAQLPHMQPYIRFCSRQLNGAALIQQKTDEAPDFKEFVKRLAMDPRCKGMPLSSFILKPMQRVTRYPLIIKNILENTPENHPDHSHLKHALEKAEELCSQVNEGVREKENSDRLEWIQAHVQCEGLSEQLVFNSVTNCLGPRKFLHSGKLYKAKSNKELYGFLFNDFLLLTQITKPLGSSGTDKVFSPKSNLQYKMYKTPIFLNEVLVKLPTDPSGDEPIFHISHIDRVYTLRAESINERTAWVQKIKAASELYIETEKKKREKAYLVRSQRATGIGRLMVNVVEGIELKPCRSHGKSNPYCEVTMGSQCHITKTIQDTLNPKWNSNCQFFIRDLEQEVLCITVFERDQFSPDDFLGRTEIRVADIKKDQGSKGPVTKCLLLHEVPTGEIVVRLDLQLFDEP

Chain of Rho guanine nucleotide exchange factor 12 (Q9NZN5 whole entry, the tested form may be a part): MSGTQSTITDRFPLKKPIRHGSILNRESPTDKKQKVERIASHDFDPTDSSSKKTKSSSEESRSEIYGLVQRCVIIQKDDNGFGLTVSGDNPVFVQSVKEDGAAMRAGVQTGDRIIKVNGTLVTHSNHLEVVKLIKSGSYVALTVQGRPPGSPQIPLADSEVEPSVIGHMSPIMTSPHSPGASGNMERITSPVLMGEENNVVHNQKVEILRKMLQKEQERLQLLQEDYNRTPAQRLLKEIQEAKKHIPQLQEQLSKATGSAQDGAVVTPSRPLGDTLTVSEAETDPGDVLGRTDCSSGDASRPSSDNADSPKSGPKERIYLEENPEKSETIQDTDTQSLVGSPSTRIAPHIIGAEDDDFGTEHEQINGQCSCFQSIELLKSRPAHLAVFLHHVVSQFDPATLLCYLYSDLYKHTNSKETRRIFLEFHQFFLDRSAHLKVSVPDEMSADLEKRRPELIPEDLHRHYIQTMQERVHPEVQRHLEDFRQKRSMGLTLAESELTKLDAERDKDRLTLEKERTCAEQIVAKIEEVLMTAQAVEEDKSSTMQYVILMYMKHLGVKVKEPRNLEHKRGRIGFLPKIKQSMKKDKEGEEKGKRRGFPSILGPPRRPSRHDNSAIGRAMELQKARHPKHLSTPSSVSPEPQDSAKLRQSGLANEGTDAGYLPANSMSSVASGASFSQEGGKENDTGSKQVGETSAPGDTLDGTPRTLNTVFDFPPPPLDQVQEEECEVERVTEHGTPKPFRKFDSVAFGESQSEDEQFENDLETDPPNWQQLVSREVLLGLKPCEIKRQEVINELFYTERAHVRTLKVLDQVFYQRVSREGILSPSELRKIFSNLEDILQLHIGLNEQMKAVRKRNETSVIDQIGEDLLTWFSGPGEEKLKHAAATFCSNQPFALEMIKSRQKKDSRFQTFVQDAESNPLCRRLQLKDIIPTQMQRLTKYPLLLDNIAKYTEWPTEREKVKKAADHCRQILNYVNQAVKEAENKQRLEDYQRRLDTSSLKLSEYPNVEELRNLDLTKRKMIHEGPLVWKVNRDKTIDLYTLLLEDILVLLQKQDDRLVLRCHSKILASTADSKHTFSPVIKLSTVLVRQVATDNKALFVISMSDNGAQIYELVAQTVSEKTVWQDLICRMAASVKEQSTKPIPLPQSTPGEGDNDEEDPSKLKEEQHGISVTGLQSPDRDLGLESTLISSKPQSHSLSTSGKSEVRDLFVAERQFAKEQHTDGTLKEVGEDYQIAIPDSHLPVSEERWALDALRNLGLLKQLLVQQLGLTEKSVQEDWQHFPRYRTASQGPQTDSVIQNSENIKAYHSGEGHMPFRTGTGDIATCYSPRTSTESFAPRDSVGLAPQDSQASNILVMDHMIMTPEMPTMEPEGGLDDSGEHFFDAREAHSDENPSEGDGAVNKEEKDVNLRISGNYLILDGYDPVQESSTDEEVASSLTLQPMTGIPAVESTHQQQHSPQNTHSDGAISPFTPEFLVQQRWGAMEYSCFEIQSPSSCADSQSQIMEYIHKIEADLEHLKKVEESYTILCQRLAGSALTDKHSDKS

fold change (FC) [4]: 0.71
IC50 [5]: 1000 nM
inhibition [7]: inactive
Structure (SMILES): Cc1cccc(COc2cccc(/C=C3\C(=O)NN(c4ccccc4)C3=O)c2)c1
inhibition [1]: Active
inhibition [2]: Active
fold change (FC) [3]: 1.27
inhibition [6]: inactive
